Entries after “also recorded” stand apart in the source; their conditions may differ. Where no end group is shown, it is not given here.
Columns and labels:
[1] = Hydrogelation by folding and self-assembly; format: physicochemical; conditions: pH 9, heating/cooling cycles
Description: The ability of MAX1 to undergo hydrogelation is dependent upon its unimolecular folded state. Under basic aqueous solution conditions (pH 9.0, 125 mM Borate, 10 mM NaCl), where some of the lysine side chains of MAX1 are neutral, this peptide intramolecularly folds into an amphiphilic β-hairpin (folding can also be triggered at pH 7 under physiological conditions). One face of the hairpin is lined with hydrophobic valine residues while the other face is lined with hydrophilic lysine residues, FIGS. 2 and 3A. After intramolecular folding, subsequent self-assembly of hairpins is facilitated (a) laterally via H-bond formation and attractive hydrophobic interactions between distinct hairpins as well as (b) facially by hydrophobic association of the valine-rich faces of the folded peptide resulting in hydrogelation, FIG. 3B. Since the charged state of the lysine residues are controlled by pH, the unimolecular folding is reversible. Lowering the pH below the intrinsic pKa of the lysine side chains results in intra-strand charge repulsion from neighboring lysines and subsequent unfolding of individual hairpins, ultimately dissolving the self-assembled hydrogel structure. This reversible behavior is unique when compared to β-sheet-rich hydrogels prepared from classical fibril-based designs. In these systems, the self-assembly process is irreversible.
There are reports of large polymers that are thermally responsive. The present invention provides the first system that employs temperature triggered folding to induce self-assembly. […] Heating the solution to 80° C. results in a spectra consistent with β-sheet structure. […] The temperatures used in both CD and rheology bracket the temperature (Tgel=60° C., FIG. 9) at which folding and consequent self-assembly is triggered. […] For example, free flowing peptide solutions could be prepared at room temperature and administered in vivo where the temperature of the body could induce gelation. Some Poly-N-isopropylacrylamide polymers have been engineered have been engineered to undergo such transitions ultimately affording extracellular-like scaffolds for tissue regeneration. The above studies support the idea that the formation of hydrophobic interactions are important. MAX1-3 all contain valines and threonines at hydrogen bonded positions. At these positions, their side chains prefer to adopt a trans rotamer. As a result, hydrophobic residues that oppose each other across the hairpin point their side chains in opposite directions thus making the formation of intramolecular hydrophobic interactions across the strands difficult, FIG. 11A. However, these side chains are nicely positioned to interact laterally with the hydrophobic side chains of neighboring hairpins in the self-assembled state, FIG. 11B. Forming these lateral hydrophobic interactions should favor self-assembly. […] In MAX4, opposing valine side chains are expected to point towards each other, FIG. 11B. Thus, the valine side chains of MAX4 are less likely than those in MAX1 to form lateral intermolecular hydrophobic interactions. If the formation of lateral intermolecular hydrophobic interactions is of more importance for self-assembly than intramolecular hydrophobic contacts, then the rate of self-assembly should be faster for MAX1 than for MAX4. This difference in rate should be evident in the rate of storage moduli (rigidity) increase. […] (Tgel=20° C. for both peptides). […]

[2] = test system: fibroblasts (NIH 3T3, mouse); test: Fibroblast adhesion and proliferation on hydrogel by optical microscopy; format: cell-based
Description: These cells were used as a model system because of their importance in connective tissue development and their easily distinguished morphology when adhered to the hydrogel scaffold. Qualitative studies were performed in which cells were added to either polystyrene control wells or wells containing a uniform slab (3 mm thick) of MAX1-hydrogel. Cell adhesion was qualitatively monitored via direct observation of cell spreading after four hours from the time of initial cell seeding by optical microscopy (a quantitative cell attachment assay is described below, see also Akiyama, S. K. Functional analysis of cell adhesion: Quantitation of cell-matrix attachment, 2002; Vol. 69, pp 281-296). Non-adhered fibroblasts have rounded morphologies and adhered fibroblasts have spread morphologies Proliferation was measured both qualitatively by optical microscopy and quantitatively by a ^3H thymidine-based cell seeding assay as described below. Hydrogels were prepared in 48 well tissue culture plates by either one of the following protocols. Protocol 1: MAX1 was dissolved in water (resulting in an acidic solution, pH~5) and an equal volume of buffer (pH 9, 250 mM borate, 20 mM NaCl) was added at room temperature to induce folding/self-assembly resulting in a 2 wt % hydrogel. The resulting gel was bathed in DMEM containing 10% calf serum and […] gentamicin. This allowed media to permeate throughout the gel and adjust the pH to 7.3 The storage moduli (rigidity) of gels prepared by protocol 1 are about 1600 Pa. Protocol 2: MAX1 was dissolved in water and an equal volume of serum free DMEM containing […] gentamicin was added to induce folding/self-assembly affording 2 wt % hydrogels. Depending on the experiment, DMEM containing calf serum can then be added to introduce serum proteins. The storage moduli of gels prepared by protocol 2 are about 1200 Pa. […] Proliferation of the cells occurs until confluency is reached, usually around 72 hours if 10^4 cells are initially plated, FIG. 16B. Cells remain viable for at least a month as long as fresh media is provided (we stopped the assay after 1 month). Cells added to control wells containing no gel show similar behavior, FIGS. 16 C and D. In FIGS. 16A-D, cells are plated in the presence of DMEM containing 10% calf serum. Serum proteins may help mediate cellular adhesion to the hydrogel by first coating the scaffold. To determine if the hydrogel scaffold alone is conducive to cell adhesion, cells were plated onto 2 wt. % hydrogels in the absence of serum. […] The incorporation of cell binding epitopes in peptides used in hydrogel formation may be used to enhance cell adhesion in the absence of serum.

VKVKVKVK V^DPPT KVKVKVKV-NH2 (not fully specified (C-terminus)) [MAX1]
reversibility of thermally induced hydrogelation [1]: not reversible | time to confluency ([2]; 2 wt % gel, 10^4 cells initially plated, DMEM with 10% calf serum): around 72 hours | fibroblast adhesion to gel surface in the presence of serum ([2]; 2 wt % gel, DMEM with 10% calf serum, after four hours): adhered; also recorded: efficiently attached | fibroblast attachment and spreading in the absence of serum, compared to serum containing cultures ([2]; 2 wt. % hydrogels, after about four hours): to a lesser extent; also recorded: less efficiently | cell proliferation after addition of serum at four hours ([2]; 2 wt. % hydrogels, plated without serum, 72 hours): near confluency | time cells remain viable on gel ([2]; fresh media provided): ≥ 1 month

Source: patent US8221773B2, “Hydrogels and uses thereof” (University of Delaware, priority 2004, dated 2012)
